# Assay results reported in PMC6934184, “Selective DNA-PKcs inhibition extends the therapeutic index of localized radiotherapy and chemotherapy” (The Journal of Clinical Investigation, 2019).
# Molecular target: T1, DYRK2 (Homo sapiens, UniProt Q92630)
# T1 construct: purchased Thermo Fisher Scientific (Life Technologies) SelectScreen
# Test: SelectScreen LanthaScreen
# Format: binding
# Conditions: read-out: % displacement
# Outline: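 NU5455 was profiled across the SelectScreen Broad panel of kinase activity and binding assays. Z'LYTE reactions such as CSF1R ran at apparent Km ATP, while the Adapta CAMK1 assay used ATP listed as 10. Values are given as percent.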
# T1 sequence (Q92630 whole entry): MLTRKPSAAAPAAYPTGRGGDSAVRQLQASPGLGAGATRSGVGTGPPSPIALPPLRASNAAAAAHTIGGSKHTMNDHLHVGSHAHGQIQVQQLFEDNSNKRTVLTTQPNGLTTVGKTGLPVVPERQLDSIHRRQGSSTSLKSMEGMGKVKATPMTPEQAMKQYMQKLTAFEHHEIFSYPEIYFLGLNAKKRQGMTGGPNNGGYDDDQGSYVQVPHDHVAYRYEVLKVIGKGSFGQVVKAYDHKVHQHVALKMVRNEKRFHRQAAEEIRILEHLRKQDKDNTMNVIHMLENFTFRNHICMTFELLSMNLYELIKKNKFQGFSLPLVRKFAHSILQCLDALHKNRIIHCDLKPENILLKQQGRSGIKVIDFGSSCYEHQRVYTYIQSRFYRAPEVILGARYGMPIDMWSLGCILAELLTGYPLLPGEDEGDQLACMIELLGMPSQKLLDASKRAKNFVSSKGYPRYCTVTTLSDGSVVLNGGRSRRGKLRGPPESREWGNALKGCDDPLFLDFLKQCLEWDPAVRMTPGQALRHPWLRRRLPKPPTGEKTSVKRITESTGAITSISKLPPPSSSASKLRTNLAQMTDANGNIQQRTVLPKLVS
smiles,measurement,value
CN(C(=O)CN1CCOCC1)c1ccc2sc3c(-c4cccc5c(=O)cc(N6CC7CCC(C6)O7)oc45)cccc3c2c1 [NU5455],inhibition at 1 µM,5%
